Measurements from ChEMBL document CHEMBL1151876, “Constrained (l-)-S-adenosyl-l-homocysteine (SAH) analogues as DNA methyltransferase inhibitors” (Bioorg Med Chem Lett, 2009).

What was measured:
[1] = molecular target: T1, DNA (cytosine-5)-methyltransferase 1 (Homo sapiens, UniProt P26358)
Description: Inhibition of human recombinant DNMT1

[2] = molecular target: DNA (cytosine-5)-methyltransferase 3B (Homo sapiens, UniProt Q9UBC3)
Description: Inhibition of human recombinant DNMT3b2

[3] = molecular target: T1, DNA (cytosine-5)-methyltransferase 1; details: 45 uM
Description: Inhibition of human recombinant DNMT1 at 45 uM

T1 sequence (P26358 whole entry): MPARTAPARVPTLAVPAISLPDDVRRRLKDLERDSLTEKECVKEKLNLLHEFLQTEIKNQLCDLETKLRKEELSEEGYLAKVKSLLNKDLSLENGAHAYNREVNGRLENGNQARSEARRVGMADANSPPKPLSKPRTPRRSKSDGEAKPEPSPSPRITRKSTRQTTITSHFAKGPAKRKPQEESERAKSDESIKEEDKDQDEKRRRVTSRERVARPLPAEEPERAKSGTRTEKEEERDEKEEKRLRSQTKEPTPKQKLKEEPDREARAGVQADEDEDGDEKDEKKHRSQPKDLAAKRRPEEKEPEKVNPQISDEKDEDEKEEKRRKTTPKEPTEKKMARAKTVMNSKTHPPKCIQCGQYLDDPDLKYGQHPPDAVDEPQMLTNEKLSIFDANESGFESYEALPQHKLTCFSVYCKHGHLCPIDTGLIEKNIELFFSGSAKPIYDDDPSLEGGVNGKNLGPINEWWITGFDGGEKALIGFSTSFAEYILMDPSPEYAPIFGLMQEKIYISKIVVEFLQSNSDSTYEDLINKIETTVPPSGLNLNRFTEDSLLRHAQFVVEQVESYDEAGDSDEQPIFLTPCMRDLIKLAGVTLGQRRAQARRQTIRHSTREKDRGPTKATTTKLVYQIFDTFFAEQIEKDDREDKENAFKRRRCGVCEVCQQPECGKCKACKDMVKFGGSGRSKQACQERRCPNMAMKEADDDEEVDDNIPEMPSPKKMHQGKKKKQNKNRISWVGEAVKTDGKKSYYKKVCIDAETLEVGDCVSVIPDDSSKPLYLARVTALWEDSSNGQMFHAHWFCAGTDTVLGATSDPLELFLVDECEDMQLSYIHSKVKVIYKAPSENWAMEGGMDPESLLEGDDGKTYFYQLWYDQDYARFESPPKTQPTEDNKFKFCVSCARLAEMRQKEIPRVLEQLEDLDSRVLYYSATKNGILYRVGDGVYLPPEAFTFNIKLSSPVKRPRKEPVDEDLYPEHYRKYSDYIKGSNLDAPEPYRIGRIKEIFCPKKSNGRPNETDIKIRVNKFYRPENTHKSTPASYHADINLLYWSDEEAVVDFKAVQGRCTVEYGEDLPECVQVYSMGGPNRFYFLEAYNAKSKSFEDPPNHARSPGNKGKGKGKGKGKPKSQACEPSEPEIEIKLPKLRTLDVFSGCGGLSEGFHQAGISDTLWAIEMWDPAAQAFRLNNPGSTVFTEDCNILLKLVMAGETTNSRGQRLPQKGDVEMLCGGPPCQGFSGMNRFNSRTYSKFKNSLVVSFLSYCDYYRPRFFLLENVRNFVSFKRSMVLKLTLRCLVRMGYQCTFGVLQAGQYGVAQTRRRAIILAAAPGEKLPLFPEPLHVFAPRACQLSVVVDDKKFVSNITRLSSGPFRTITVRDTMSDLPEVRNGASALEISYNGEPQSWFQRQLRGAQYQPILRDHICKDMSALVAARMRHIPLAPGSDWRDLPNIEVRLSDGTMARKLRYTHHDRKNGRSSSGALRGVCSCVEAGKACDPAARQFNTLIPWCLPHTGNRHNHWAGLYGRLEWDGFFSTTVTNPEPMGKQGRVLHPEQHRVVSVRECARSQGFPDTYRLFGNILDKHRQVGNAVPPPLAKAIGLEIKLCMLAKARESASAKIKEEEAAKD

SMILES	IC50 [1]	IC50 [2]	inhibition [3]
NCCCSC[C@H]1O[C@@H](n2cnc3c(N)ncnc32)[C@H](O)[C@@H]1O	> 45 µM	17 µM	–
COC(=O)[C@@H]1C[C@H](SC[C@H]2O[C@@H](n3cnc4c(N)ncnc43)[C@H](O)[C@@H]2O)CN1C	4.5 µM	–	–
Nc1ncnc2c1ncn2[C@@H]1O[C@H](CS[C@H]2CCN[C@@H](C(=O)O)C2)[C@@H](O)[C@H]1O	> 100 µM	–	–
Nc1ncnc2c1ncn2[C@@H]1O[C@H](CS[C@H]2CCN[C@H](C(=O)O)C2)[C@@H](O)[C@H]1O	8 µM	–	–
O=C(O)[C@@H]1C[C@H](SC[C@H]2O[C@@H](n3cnc4c(NCCc5ccc(-c6ccccc6)cc5)nc(Cl)nc43)[C@H](O)[C@@H]2O)CN1	2.5 µM	–	–
NCCSC[C@H]1O[C@@H](n2cnc3c(N)ncnc32)[C@H](O)[C@@H]1O	18 µM	–	–
Nc1nc(Cl)nc2c1ncn2C1O[C@H](CS[C@H]2CCNC2)[C@@H](O)[C@H]1O (single isomer, unassigned)	–	> 45 µM	–
Nc1nc(Cl)nc2c1ncn2C1O[C@H](CS[C@@H]2CN[C@H](C(=O)O)C2)[C@@H](O)[C@H]1O (single isomer, unassigned)	0.82 µM	–	–
Nc1ncnc2c1ncn2[C@@H]1O[C@H](CS[C@@H]2CN[C@H](C(=O)O)C2)[C@@H](O)[C@H]1O	1.1 µM	0.3 µM	–
CN1C[C@@H](SC[C@H]2O[C@@H](n3cnc4c(N)ncnc43)[C@H](O)[C@@H]2O)C[C@H]1C(=O)O	> 100 µM	–	–
Nc1ncnc2c1ncn2[C@@H]1O[C@H](CS[C@H]2CN[C@H](C(=O)O)C2)[C@@H](O)[C@H]1O	> 100 µM	54 µM	–
COC(=O)[C@@H]1C[C@H](SC[C@H]2O[C@@H](n3cnc4c(N)ncnc43)[C@H](O)[C@@H]2O)CN1	4 µM	–	–
Nc1ncnc2c1ncn2[C@@H]1O[C@H](CSCC[C@H](N)C(=O)O)[C@@H](O)[C@H]1O [S-ADENOSYLHOMOCYSTEINE]	–	0.2 µM	–

Other lines, results leading:

IC50 [1]	IC50 [2]	inhibition [3]	SMILES
94 µM	–	–	Nc1ncnc2c1ncn2[C@@H]1O[C@H](CS[C@@H]2CCC[C@@H]2N)[C@@H](O)[C@H]1O
–	> 100 µM	–	Nc1ncnc2c1ncn2[C@@H]1O[C@H](CSC2CNC2)[C@@H](O)[C@H]1O
–	–	18%	Nc1ncnc2c1ncn2[C@@H]1O[C@H](CS[C@H]2CCCNC2)[C@@H](O)[C@H]1O
–	–	1%	NC(=O)[C@@H]1C[C@H](SC[C@H]2O[C@@H](n3cnc4c(N)ncnc43)[C@H](O)[C@@H]2O)CN1
> 10 µM	–	–	CN1CC[C@@H](SC[C@H]2O[C@@H](n3cnc4c(N)ncnc43)[C@H](O)[C@@H]2O)C1
44 µM	26 µM	–	Nc1ncnc2c1ncn2[C@@H]1O[C@H](CS[C@H]2CCNC2)[C@@H](O)[C@H]1O
4.8 µM	12 µM	–	Nc1ncnc2c1ncn2[C@@H]1O[C@H](CS[C@@H]2CCNC2)[C@@H](O)[C@H]1O
> 100 µM	–	–	Nc1ncnc2c1ncn2[C@@H]1O[C@H](CS[C@@H]2CCN[C@H](C(=O)O)C2)[C@@H](O)[C@H]1O
